Several values for one entry are separate records, joined by “and”; a condition that tells them apart may be missing. Equal entries are not always repeated. Entries after “also recorded” stand apart in the source; their conditions may differ.
Experiments:
DRD1 = DRD1 (Homo sapiens, UniProt P21728); test: SAFETYscan EFC-based cAMP secondary messenger assay (agonist/antagonist mode); type: cell-based
DRD2S = DRD2S (Homo sapiens, UniProt P14416); test: as above
CHRM2 = CHRM2 (Homo sapiens, UniProt P08172); test: as above
AVPR1A = AVPR1A (Homo sapiens, UniProt P37288); test: SAFETYscan calcium secondary messenger assay (agonist/antagonist mode); type: cell-based
[1] = Mouse pharmacokinetic (PK) evaluation of drug metabolism to psilocin; details: for AUC(0-inf): AUC0-inf (parent compound in plasma); for half-life: Apparent t1/2 (parent compound in plasma); for clearance: CL (parent compound); for MRT inf: MRT0-inf (parent compound)
NMDAR = NMDAR (Homo sapiens, UniProt Q05586+Q13224); test: SAFETYscan ion channel assay, FLIPR membrane potential (opener/blocker); type: cell-based
5-HT1A receptor = target: T1, 5-HT1A receptor (Homo sapiens, UniProt P08908); test: cAMP-Glo assay in +5-HT1A / -5-HT1A CHO-K1 cells; type: cell-based
T1 construct: host or cells: CHO-K1 (co-expressing Ga15)
T1 sequence (P08908 1-422): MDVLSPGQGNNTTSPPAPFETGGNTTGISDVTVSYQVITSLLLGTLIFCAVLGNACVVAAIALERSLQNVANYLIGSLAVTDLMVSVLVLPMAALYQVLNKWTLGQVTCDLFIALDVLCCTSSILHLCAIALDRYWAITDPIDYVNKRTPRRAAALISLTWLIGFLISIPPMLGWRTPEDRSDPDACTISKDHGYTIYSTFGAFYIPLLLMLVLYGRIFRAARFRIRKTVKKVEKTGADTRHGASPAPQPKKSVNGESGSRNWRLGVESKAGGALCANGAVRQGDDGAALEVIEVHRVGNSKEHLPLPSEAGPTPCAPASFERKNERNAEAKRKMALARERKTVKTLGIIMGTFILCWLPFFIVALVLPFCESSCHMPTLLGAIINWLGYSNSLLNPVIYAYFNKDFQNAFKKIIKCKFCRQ

[2] = male, C57Bl/6, mouse, plasma, iv, 1 mg/kg, 1 mg/kg i.v., individual mice
[3] = male, C57Bl/6, mouse, plasma, iv, 1 mg/kg, 1 mg/kg i.v., mean

DRD2S, sequence (P14416 1-414 isoform P14416-2): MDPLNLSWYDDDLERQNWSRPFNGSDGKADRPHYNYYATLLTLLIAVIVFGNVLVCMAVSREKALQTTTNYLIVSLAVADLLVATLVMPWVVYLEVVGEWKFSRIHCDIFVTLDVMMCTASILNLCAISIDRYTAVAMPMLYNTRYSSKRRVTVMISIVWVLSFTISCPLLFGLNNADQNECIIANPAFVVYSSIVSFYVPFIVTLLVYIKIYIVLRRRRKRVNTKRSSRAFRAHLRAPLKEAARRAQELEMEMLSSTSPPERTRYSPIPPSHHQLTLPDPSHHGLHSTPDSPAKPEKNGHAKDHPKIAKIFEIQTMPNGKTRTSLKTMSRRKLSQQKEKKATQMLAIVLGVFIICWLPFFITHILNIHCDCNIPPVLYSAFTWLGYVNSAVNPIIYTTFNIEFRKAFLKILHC
CHRM2, sequence (P08172 whole entry): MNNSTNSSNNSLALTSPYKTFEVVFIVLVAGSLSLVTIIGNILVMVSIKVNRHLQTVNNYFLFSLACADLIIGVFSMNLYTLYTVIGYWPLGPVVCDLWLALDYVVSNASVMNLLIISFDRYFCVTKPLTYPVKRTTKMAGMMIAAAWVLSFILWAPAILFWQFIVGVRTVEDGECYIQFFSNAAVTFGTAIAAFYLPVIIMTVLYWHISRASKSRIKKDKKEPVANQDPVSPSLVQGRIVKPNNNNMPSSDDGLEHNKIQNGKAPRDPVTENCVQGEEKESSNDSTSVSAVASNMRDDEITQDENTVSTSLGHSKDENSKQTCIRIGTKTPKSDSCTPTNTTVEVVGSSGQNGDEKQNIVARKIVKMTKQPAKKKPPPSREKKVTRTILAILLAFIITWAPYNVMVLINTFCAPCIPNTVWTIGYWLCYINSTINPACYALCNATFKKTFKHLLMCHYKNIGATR
DRD1, sequence (P21728 whole entry): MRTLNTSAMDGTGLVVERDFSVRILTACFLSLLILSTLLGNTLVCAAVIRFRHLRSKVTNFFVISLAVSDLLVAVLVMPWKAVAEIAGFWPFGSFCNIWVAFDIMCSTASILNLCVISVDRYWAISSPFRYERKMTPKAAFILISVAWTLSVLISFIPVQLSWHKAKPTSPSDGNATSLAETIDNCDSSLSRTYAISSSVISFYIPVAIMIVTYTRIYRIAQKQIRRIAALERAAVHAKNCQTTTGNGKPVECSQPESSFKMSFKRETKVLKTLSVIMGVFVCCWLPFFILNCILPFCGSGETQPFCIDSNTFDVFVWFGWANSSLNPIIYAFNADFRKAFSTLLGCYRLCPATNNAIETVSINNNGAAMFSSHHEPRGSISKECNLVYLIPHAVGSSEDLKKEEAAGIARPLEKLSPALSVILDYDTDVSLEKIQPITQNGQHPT
AVPR1A, sequence (P37288 whole entry): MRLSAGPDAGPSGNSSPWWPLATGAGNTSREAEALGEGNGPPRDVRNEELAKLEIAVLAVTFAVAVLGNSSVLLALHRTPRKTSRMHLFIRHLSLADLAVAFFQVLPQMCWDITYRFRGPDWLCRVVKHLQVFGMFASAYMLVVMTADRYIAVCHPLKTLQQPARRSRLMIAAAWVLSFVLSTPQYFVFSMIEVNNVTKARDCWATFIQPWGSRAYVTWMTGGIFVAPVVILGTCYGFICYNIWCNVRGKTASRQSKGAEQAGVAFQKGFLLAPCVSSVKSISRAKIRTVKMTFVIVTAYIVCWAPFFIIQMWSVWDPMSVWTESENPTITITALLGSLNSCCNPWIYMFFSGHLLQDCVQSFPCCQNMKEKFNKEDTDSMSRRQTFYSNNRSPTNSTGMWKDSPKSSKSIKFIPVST
NMDAR, sequence (Q13224 27-1484, other chains not shown): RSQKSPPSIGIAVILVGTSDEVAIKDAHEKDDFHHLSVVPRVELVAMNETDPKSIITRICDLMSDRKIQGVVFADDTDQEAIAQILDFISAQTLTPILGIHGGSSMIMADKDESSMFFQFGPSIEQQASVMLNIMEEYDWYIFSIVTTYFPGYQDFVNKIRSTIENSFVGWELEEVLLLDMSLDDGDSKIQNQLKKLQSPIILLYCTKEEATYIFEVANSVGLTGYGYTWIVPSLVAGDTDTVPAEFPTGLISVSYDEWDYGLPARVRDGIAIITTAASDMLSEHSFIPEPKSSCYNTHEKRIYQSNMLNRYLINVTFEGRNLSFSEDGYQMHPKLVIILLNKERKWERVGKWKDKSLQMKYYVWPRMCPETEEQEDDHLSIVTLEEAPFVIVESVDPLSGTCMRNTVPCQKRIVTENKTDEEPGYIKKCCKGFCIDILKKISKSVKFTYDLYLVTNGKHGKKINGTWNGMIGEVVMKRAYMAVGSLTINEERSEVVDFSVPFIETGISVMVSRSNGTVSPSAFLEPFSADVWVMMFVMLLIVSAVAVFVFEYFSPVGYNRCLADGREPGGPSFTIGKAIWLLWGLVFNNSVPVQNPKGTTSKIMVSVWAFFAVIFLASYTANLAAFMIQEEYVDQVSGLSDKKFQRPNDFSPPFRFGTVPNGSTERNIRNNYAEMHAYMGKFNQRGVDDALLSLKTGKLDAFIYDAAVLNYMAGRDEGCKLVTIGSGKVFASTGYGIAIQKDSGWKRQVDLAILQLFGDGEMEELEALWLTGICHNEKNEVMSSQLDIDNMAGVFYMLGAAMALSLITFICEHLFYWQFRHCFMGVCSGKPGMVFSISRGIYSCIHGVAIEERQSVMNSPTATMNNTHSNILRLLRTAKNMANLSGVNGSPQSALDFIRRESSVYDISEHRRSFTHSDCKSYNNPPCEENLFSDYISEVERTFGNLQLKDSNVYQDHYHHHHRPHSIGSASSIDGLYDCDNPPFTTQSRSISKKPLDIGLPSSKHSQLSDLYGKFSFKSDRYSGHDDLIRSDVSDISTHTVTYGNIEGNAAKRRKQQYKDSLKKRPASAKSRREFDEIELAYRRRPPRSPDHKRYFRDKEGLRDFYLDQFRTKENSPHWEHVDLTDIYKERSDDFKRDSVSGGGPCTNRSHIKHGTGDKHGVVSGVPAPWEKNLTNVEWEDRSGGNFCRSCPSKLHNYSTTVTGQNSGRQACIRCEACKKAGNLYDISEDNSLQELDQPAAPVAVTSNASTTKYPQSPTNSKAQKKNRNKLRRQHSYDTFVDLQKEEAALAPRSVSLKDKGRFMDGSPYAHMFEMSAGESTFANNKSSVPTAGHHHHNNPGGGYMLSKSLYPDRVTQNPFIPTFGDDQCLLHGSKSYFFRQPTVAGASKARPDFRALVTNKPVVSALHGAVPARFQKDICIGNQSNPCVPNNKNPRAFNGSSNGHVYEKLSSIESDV

## CN(C)CCc1c[nH]c2cccc(OC(=O)SCc3ccccc3)c12 [E(VI)]
DRD1
  EC50: > 100 µM
  IC50: 7.11 µM
DRD2S
  EC50: > 100 µM
  IC50: 13.3 µM
CHRM2
  EC50: > 100 µM
  IC50: 51.2 µM
AVPR1A
  EC50: > 100 µM
  IC50: > 100 µM
[1]; 1 mg/kg i.v., 5 min, individual mice
  Plasma concentration of administered (parent) compound: 3.20 ng/mL and 59.0 ng/mL and 11.1 ng/mL
[1]; 1 mg/kg i.v., 0.25 h, individual mice
  Plasma concentration of administered (parent) compound: 72.1 ng/mL and 110 ng/mL and 7.79 ng/mL
[1]; 1 mg/kg i.v., 0.5 h, individual mice
  Plasma concentration of administered (parent) compound: 13.1 ng/mL and 9.29 ng/mL and 1.03 ng/mL
[1]; 1 mg/kg i.v., 1 h, individual mice
  Plasma concentration of administered (parent) compound: 5.84 ng/mL and No Peak
[1]; 1 mg/kg i.v., 2 h, individual mice
  Plasma concentration of administered (parent) compound: 0.594 ng/mL and No Peak
[1]; 1 mg/kg i.v., 4 h, individual mice
  Plasma concentration of administered (parent) compound: BLQ (2×) and No Peak
[1]; 1 mg/kg i.v., 6 h, individual mice
  Plasma concentration of administered (parent) compound: No Peak (2×) and BLQ
[1]; 1 mg/kg i.v., 8 h, individual mice
  Plasma concentration of administered (parent) compound: No Peak
[1]; 1 mg/kg i.v., individual mice
  AUC0-inf (parent compound in plasma): 35.5 ng·h/mL
  AUC0-tlast (parent compound in plasma): 20.4 ng·h/mL and 35.2 ng·h/mL and 3.40 ng·h/mL
  AUC0-tlast/Dose (parent compound in plasma): 20.4 kg·ng·h/mL/mg and 35.2 kg·ng·h/mL/mg and 3.40 kg·ng·h/mL/mg
  Apparent t1/2 (parent compound in plasma): 21.9 min
  C0 (parent compound in plasma): 3.20 ng/mL and 59.0 ng/mL and 13.2 ng/mL
  CL (parent compound): 469.32 mL/min/kg
  MRT0-inf (parent compound): 21.6 min
  Vss (parent compound): 23.899 L/kg and 10.146 L/kg
[1]; 1 mg/kg i.v., mean ± SD
  AUC0-tlast/Dose (parent compound in plasma): 19.7 ± 15.9 kg·ng·h/mL/mg
[1]; 1 mg/kg oral
  detection of administered compound in plasma (in words): neither B(II) nor E(VI) were detected in plasma
[1]; 1 mg/kg oral of administered compound, 8 h, individual mice
  Plasma concentration of psilocin: BLQ
[1]; 1 mg/kg oral of administered compound, 24 h, individual mice
  Plasma concentration of psilocin: No Peak
[1]; 3 mg/kg oral of administered compound, 24 h, individual mice
  Plasma concentration of psilocin: No Peak (2×) and BLQ
[1]; 10 mg/kg oral of administered compound, 24 h, individual mice
  Plasma concentration of psilocin: BLQ
[1]; male, C57Bl/6, mouse, plasma, intravenous, 1 mg/kg, Plasma concentration of administered (parent) compound, 1 mg/kg i.v., 5 min, mean ± SD
  concentration at 5 min: 24.4 ± 30.2 ng/mL
[1]; male, C57Bl/6, mouse, plasma, intravenous, 1 mg/kg, Plasma concentration of administered (parent) compound, 1 mg/kg i.v., 0.25 h, mean ± SD
  concentration at 0.25 h: 63.3 ± 51.7 ng/mL
[1]; male, C57Bl/6, mouse, plasma, intravenous, 1 mg/kg, Plasma concentration of administered (parent) compound, 1 mg/kg i.v., 0.5 h, mean ± SD
  concentration at 0.5 h: 7.81 ± 6.17 ng/mL
[1]; male, C57Bl/6, mouse, plasma, intravenous, 1 mg/kg, Plasma concentration of administered (parent) compound, 1 mg/kg i.v., 1 h, individual mice
  concentration at 1 h: 3.14 ng/mL
[1]; male, C57Bl/6, mouse, plasma, intravenous, 1 mg/kg, Plasma concentration of administered (parent) compound, 1 mg/kg i.v., 1 h, mean
  concentration at 1 h: 4.49 ng/mL
[1]; male, C57Bl/6, mouse, plasma, intravenous, 1 mg/kg, Plasma concentration of administered (parent) compound, 1 mg/kg i.v., 2 h, individual mice
  concentration at 2 h: 0.776 ng/mL
[1]; male, C57Bl/6, mouse, plasma, intravenous, 1 mg/kg, Plasma concentration of administered (parent) compound, 1 mg/kg i.v., 2 h, mean
  concentration at 2 h: 0.685 ng/mL
[1]; [2]
  AUC(0-inf): 20.8 ng·h/mL
  half-life: 22.9 min
  clearance: 801 mL/min/kg
  MRT inf: 29.8 min
[1]; [3]
  AUC(0-inf): 28.2 ng·h/mL
  clearance: 635 mL/min/kg
  MRT inf: 25.7 min
[1]; male, C57Bl/6, mouse, plasma, iv, 1 mg/kg, AUC0-tlast (parent compound in plasma), 1 mg/kg i.v., mean ± SD
  AUC(0-t): 19.7 ± 15.9 ng·h/mL
[1]; male, C57Bl/6, mouse, plasma, iv, 1 mg/kg, 1 mg/kg i.v., mean ± SD
  half-life: 22.4 ± 0.708 min
[1]; male, C57Bl/6, mouse, plasma, iv, 1 mg/kg, C0 (parent compound in plasma), 1 mg/kg i.v., mean ± SD
  C0: 25.1 ± 29.7 ng/mL
[1]; male, C57Bl/6, mouse, plasma, iv, 1 mg/kg, Vss (parent compound), 1 mg/kg i.v., mean
  Vd: 17 L/kg
[1]; oral vs i.v. dosing
  detectability of administered compound in plasma (in words): did not yield any detectable levels of E(VI); also recorded: never detected at any timepoint
NMDAR
  EC50: > 100 µM
  IC50: 15 µM
5-HT1A receptor; cAMP assay, forskolin-stimulated +5-HT1A cells
  EC50 at 5-HT1A: neither molecule engaged 5-HT1A with sufficient potency to calculate an EC50 value
5-HT1A receptor; forskolin-stimulated +5-HT1A vs -5-HT1A cells, increasing ligand
  cAMP level / 5-HT1A receptor modulation (in words): mild receptor modulation at higher ligand concentrations
